pIC50: −log10 of the molar value. “Also recorded” adds a separate entry of the source. Like-named read-outs stand apart in the source and are kept apart here.
Legend:
UTI89 biofilm [1] = assay: UTI89 type 1 dependent biofilm formation (inhibition/prevention) assay on PVC, crystal violet; type: cell-based, uropathogenic E. coli UTI89
Procedure, shortened: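 Prevention: UTI89 grown in LB in PVC wells at 23° C with mannoside at varying concentrations for 48 h, then crystal violet stained and quantified. Disruption: 24 h UTI89 biofilm, mannoside added, grown 16 h more, then crystal violet.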

UTI89 biofilm [2] = assay: Disruption of preformed UTI89 biofilm (PVC plates, coverslips, confocal); type: cell-based, uropathogenic E. coli UTI89; conditions: mannoside added to 24 h biofilm, further 16 h; confocal at 0.3 μM
Description: UTI89 biofilm was grown in LB+/− mannoside for 24 h at 22° C. in PVC plates and quantitated using crystal violet. UTI89 biofilm for confocal microscopy was grown in LB for 24 h at 22° C. on PVC coverslips. Mannoside was then added and biofilm was grown for an additional 16 h. Coverslips were then washed in PBS, fixed in 2% paraformaldehyde and stained with SYTO9 prior to confocal microscopy. For all animal experiments UTI89 or PBC-1 was grown 2×24 h statically in LB at 37° C. and inoculated at a dose of 1×10^7 bacteria in 50 μl. All mice used were female C3H/HeN (Jackson). For the pretreatment studies, bacteria were incubated with mannoside for 20 min prior to inoculation into the mouse. […] After growth at 37° C. overnight, bacterial counts were determined. […]
Biofilm assay. […] After 48 h of growth, wells were rinsed with water and stained with crystal violet for quantification as described. […] Wells were then rinsed, stained with crystal violet and quantified. […]
UTI89 was grown in LB in PVC plates and allowed to form biofilm at RT for 24 or 48 h. […] Biofilm formation was then quantitated using the standard crystal violet assay. […]
UTI89 was grown in LB broth in wells of PVC microtiter plates at 23° C. in the presence of individual mannosides at varying concentrations. After 48 h of growth, wells were rinsed with water and stained with crystal violet for quantification as described. […]

PBC-1 = assay: Mouse bladder infection with TMP-SMZ resistant strain, with or without TMP-SMZ in drinking water; type: in vivo, E. coli (UPEC); host C3H/HeN mouse; conditions: 6 hpi, mannoside IP 30 min prior and/or TMP-SMZ 3 days in drinking water

Question: With `COC(=O)c1cccc(-c2ccc(O[C@H]3O[C@H](CO)[C@@H](O)[C@H](O)[C@@H]3O)cc2)c1` [Compound 1, phenyl mannoside, reference compound] as the molecule, how does the pIC50 (UTI89 biofilm [1]; Escherichia coli, read-out: Biofilm Prevention IC50) read?
Answer: The pIC50 was 6.03.

Question: With `CNC(=O)c1cc(C(=O)NC)cc(-c2ccc(O[C@H]3O[C@H](CO)[C@@H](O)[C@H](O)[C@@H]3O)cc2)c1` [ZFH-2056] as the molecule, how does the “disruption / dispersal of preformed biofilm, qualitative” value (UTI89 biofilm [2]) read?
Answer: The value was “lacked continuity; also recorded: dispersed biofilm”.

Question: And the “bladder bacterial CFUs” value (PBC-1)?
Answer: Its value is “significant drop in bacterial load”.

Question: And the pIC50 (UTI89 biofilm [1]; read-out: biofilm inhibition IC50)?
Answer: The pIC50 was 6.13.

— US8937167B2 (Washington University, priority 2009, dated 2015)
